Assay results reported in patent US7745402B2, “Method of treating pancreatitis” (Lundbeck Inc., priority 2005, dated 2010).

Tests used:
HO-1 [1] = experiment: HO-1 immunoblot of mouse tissue/cell homogenates after hemin; assay type: in vivo, mice; settings: for HO-1 induction: hemin 3× during 7 d
Protocol: (A, B) Total tissue homogenates were obtained from pancreata of caerulein-injected or choline deficient diet (CDD)-fed mice. Two age and sex-matched mice were used for each time point. Homogenates were tested by blotting using antibodies to HO-1 or HO-2. (C) Mice (3 mice/condition) were given hemin by intraperitoneal injection (4× during one week, or 8× during two weeks). Two “control” mice were injected with vehicle alone. Pancreatic homogenates were then obtained and blotted with anti-HO-1/2. (D-F) Mice were injected with saline, hemin, or vehicle (8 mice/group)3×(arrows) followed by feeding with CDD for 3 d then harvesting of the pancreata. HO-1 and HO-2 were analyzed by blotting of pancreatic homogenates (3 mice/group). […] A representative hematoxylin and eosin staining of pancreata from mice that survived CDD feeding is shown (scale bar=50 μM).
FIG. 8: HO-1 expression and hemin-mediated induction in mouse tissues and cells. Mice were injected 3× during 7d with vehicle or hemin (2 mice/group) followed by harvesting of the indicated organs and cells then preparation of total tissue/cell homogenates. Protein concentrations of the homogenates were measured followed by SDS-PAGE separation (40 μg of protein/lane) then blotting using anti-HO-1 antibodies.
Hemin, vehicle and antibodies. […]
(§1) Animal procedures. […] Immunofluorescence staining was performed as described (29) and images were analyzed using confocal microscopy. Total tissue lysates were prepared by homogenization in Laemmli sample buffer and analyzed by SDS-PAGE followed by transfer to membranes for blotting and protein visualization by enhanced chemiluminescence. Trypsin activity was determined using a fluorimetric assay and the substrate Boc-Gln-Ala-Arg-MCA (Peptides International Inc.; Louisville, Ky.), and comparison to a standard curve generated with purified trypsin as described. […] Lung injury after caerulein administration was assessed as previously described, based on neutrophilic infiltration, pulmonary edema, alveolar distension and collapse. […]

HO-1 [2] = experiment: Double-staining of pancreas for HO-1 and cell markers after hemin and CDD; assay type: in vivo, mice; settings: hemin pretreatment, 3 days of CDD
Description: Pancreata of mice pretreated with hemin followed by 3 days of CDD feeding were isolated, sectioned, then double-stained using antibodies to HO-1 (a, d and g) and keratin polypeptide 8 (epithelial marker, b), vimentin (mesenchymal marker, e) or MJ7/18 (endothelial marker, h). Merging of the indicated images is shown in the right panels. Scale bar in panel i=20 μm. HO-1 staining of pancreas from mice treated with vehicle alone (without CDD) afforded background staining (inset of panel a).
as §1, with “procedures. Mice were euthanized by CO2 inhalation then pancreata and lungs were rapidly removed, divided into 3-4 pieces, and blood was collected by intracardiac puncture.” for “procedures.”

Q: Hemin was tested. Which HO-1 induction (HO-1 [1]; bone marrow, spleen, brain) did it give?
A: not in bone marrow, spleen or brain

Q: And the “level of HO-1 induction on excessive dosing” value (HO-1 [1]; pancreas, 8× during two weeks vs 4× during one week (FIG. 1C))?
A: excessive dosing decreases the level of HO-1 induction

Q: And the HO-1 induction (HO-1 [1]; peritoneal cells, liver, pancreas and colon)?
A: induction of HO-1 in peritoneal cells, liver, pancreas and colon (most prominent change being in pancreas)

Q: And the “cell type of pancreatic HO-1 induction” value (HO-1 [2])?
A: occurs in non-epithelial cells
